The numbers were not newly measured in patent US20090117559A1, “Methods for Determining Probability of an Adverse or Favorable Reaction to a Niacin Receptor Agonist” (priority 2005, published 2009), which cites them from elsewhere.

The conditions of data set [1]: post administration of niacin by injection.

Turning to `O=C(O)c1cccnc1` [niacin, nicotinic acid], in data set [1], the “time after which the flushing reaction declines significantly” value is listed as “about 30 minutes” and the “time at which the flushing reaction peaks” value was “about 3 minutes”. Moreover, the “patients who cease taking niacin treatment within days after initiating therapy” value (human, in vivo) is listed as 30-40%. For the same molecule, the “subjects experiencing flushing in response to nicotinic acid therapy” value (unsegmented (general) population, Shepherd et al. 2005) is given as 70-80%.
